For experiment [1], the target named is T1, glutathione-S-transferase (GST) tagged LXRalpha LBD (ligand binding domain) (Homo sapiens, UniProt Q13133).
T1 construct: purchased Invitrogen pv4655
T1 sequence (Q13133 209-447 limits assumed): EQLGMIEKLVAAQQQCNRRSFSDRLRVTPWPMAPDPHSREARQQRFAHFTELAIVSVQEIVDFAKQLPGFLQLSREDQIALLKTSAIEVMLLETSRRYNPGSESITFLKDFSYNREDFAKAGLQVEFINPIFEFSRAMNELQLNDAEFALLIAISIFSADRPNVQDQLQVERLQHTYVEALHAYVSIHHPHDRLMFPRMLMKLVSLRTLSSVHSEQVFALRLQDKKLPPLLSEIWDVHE
The experiment in a line: LanthaScreen TR-FRET Liver X Receptor Coactivator Assay, co-activator recruitment to LXRalpha LBD. The class given is biochemical. The essentials: (§1)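 LXRα- or LXRβ-LBD protein was added to test compounds, then fluorescein-labelled coactivator peptide plus Tb-anti-GST antibody; after room-temperature incubation, TR-FRET was read. Inflection point (IP) and Emax were expressed relative to the dual agonist reference T0901317.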
Background: TR-FRET usually uses a lanthanide donor and a delayed reading to cut background.

Experiment [2] concerns the target T2, glutathione-S-transferase (GST) tagged LXRbeta LBD (ligand binding domain) (Homo sapiens, UniProt P55055).
T2 construct: purchased Invitrogen pv4658.pps
T2 sequence (P55055 222-460 limits assumed): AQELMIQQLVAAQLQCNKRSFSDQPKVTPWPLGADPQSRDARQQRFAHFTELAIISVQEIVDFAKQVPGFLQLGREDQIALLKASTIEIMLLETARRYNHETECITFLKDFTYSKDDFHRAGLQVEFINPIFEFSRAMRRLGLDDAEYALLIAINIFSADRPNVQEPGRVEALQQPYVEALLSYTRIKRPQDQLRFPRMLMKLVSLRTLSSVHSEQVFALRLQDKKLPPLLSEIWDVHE
The experiment in a line: LanthaScreen TR-FRET Liver X Receptor Coactivator Assay, co-activator recruitment to LXRbeta LBD. The class given is biochemical. An outline of the steps:
as §1

The mark [3] stands for this setting: efficacy at max dose, in relation to reference dual agonist T0901317, read-out: LXR alpha Activity @ max dose (%).
Setting [4] is: potency (Inflection Point, IP), co-activator recruitment to LXRalpha LBD, in relation to T0901317.
[5] abbreviates: efficacy at max dose, in relation to reference dual agonist T0901317, read-out: LXR beta Activity @ max dose (%).
The mark [6] stands for this setting: potency (Inflection Point, IP), co-activator recruitment to LXRbeta LBD, in relation to T0901317, read-out: LXR beta IP.
[7] abbreviates: potency (Inflection Point, IP), co-activator recruitment to LXRalpha LBD, in relation to T0901317, read-out: LXR alpha IP.
Where [8] appears, read: efficacy at max dose, in relation to reference dual agonist T0901317.

14 molecules from patent publication US10752587B2, “Homobispiperidinyl derivatives as liver X receptor beta agonists, compositions and their use” (Merck Sharp & Dohme Corp., priority 2015, dated 2020) can be followed below.

Where two headings read alike, the source gives them in different places.

Consider `CCOc1cccc([C@@](O)(C(=O)N2CCC(CC3CCN(c4ccc(C(=O)N(C)C)c(Cl)c4)CC3)CC2)C(F)F)c1` [Example 2-108, 2-chloro-4-[4-({1-[(2R)-2-(3-ethoxy-phenyl)-3,3-difluoro-2-hydroxy-propanoyl]piperidin-4-yl}methyl)piperidin-1-yl]-N,N-dimethyl-benzamide], for which the Emax in experiment [1] (setting [3]) is 0%; in experiment [2] (setting [5]), 10%. Further, the “LXR alpha IP (nM)” value in experiment [1] (setting [4]) was “NO IP”. Further, in experiment [2] (setting [6]), the EC50 was found to be 33 nM.

With `CNC(=O)c1ccc(N2CCC(CC3CCN(C(=O)[C@](O)(c4ccccc4)C(F)(F)C(F)(F)F)CC3)CC2)nc1Cl` [Example 7-131, 2-chloro-N-methyl-6-[4-({1-[(2R)-3,3,4,4,4-pentafluoro-2-hydroxy-2-phenylbutanoyl]piperidin-4-yl}methyl)piperidin-1-yl]pyridine-3-carboxamide], the Emax is 74% in experiment [1] (setting [3]) and 145% in experiment [2] (setting [5]). In addition, the EC50 in experiment [1] (setting [7]) was determined as 373 nM; in experiment [2] (setting [6]) it was 27 nM.

Take `CN(C)C(=O)c1ccc(N2CCC(CC3CCN(C(=O)[C@](O)(c4ccccc4)C(F)(F)C(F)(F)F)CC3)CC2)cc1Cl` [Example 2-13, 2-chloro-N,N-dimethyl-4-[4-({1-[(2R)-3,3,4,4,4-pentafluoro-2-hydroxy-2-phenylbutanoyl]piperidin-4-yl}methyl)piperidin-1-yl]benzamide]: the “LXR alpha Activity @ max dose (%)” value in experiment [1] (setting [8]) is given as 56%. Besides, the EC50 in experiment [1] (setting [7]) is 177 nM. In addition, the “LXR beta Activity @ max dose (%)” value in experiment [2] (setting [8]) is 119%.

For `CCc1cccc([C@@](O)(C(=O)N2CCC(C)(CC3CCN(c4ccc(C(=O)N(C)C)c(C)c4)CC3)CC2)C(F)(F)F)c1` [Example 2-78, 4-[4-({1-[(2R)-2-(3-ethylphenyl)-3,3,3-trifluoro-2-hydroxy-propanoyl]-4-methylpiperidin-4-yl}methyl)piperidin-1-yl]-N,N,2-trimethyl-benzamide], the Emax in experiment [1] (setting [3]) is 1%; in experiment [2] (setting [5]), 20%. For the same molecule, the “LXR alpha IP (nM)” value in experiment [1] (setting [4]) is given as “NO IP”. Further, in experiment [2] (setting [6]), the EC50 was found to be 32 nM.

Turning to `CN(C)C(=O)c1ccc(N2CCC(CC3CCN(C(=O)C(O)(c4ccc(C(F)(F)F)cc4)C(F)(F)F)CC3)CC2)cc1Cl` (stereo not shown) [Example 2-16, 2-chloro-N,N-dimethyl-4-{4-[(1-{3,3,3-trifluoro-2-hydroxy-2-[4-(trifluoromethyl)phenyl]propanoyl}piperidin-4-yl)methyl]piperidin-1-yl} benzamide], the Emax was 0% in experiment [1] (setting [3]) and 15% in experiment [2] (setting [5]). The “LXR alpha IP (nM)” value in experiment [1] (setting [4]) is “NO IP”. Also, the EC50 in experiment [2] (setting [6]) amounted to 598 nM.

Regarding `CN(C)C(=O)c1ccc(N2CCC(OC3CCN(C(=O)N4CC(O)(C(F)(F)F)C4)CC3)CC2)cc1Cl` [Example 8-1, 2-chloro-4-(4-((1-(3-hydroxy-3-(trifluoromethyl)azetidine-1-carbonyl)piperidin-4-yl)oxy)piperidin-1-yl)-N,N-dimethylbenzamide], the Emax in experiment [1] (setting [3]) was determined as 2%; in experiment [2] (setting [5]) it was 18%. In addition, in experiment [1] (setting [4]), the “LXR alpha IP (nM)” value is recorded as “NO IP”. Further, in experiment [2] (setting [6]), the EC50 was 30000 nM.

`CN(C)C(=O)c1ccc(N2CCC(SC3CCN(C(=O)[C@](O)(c4cc(Cl)cc(Cl)c4)C(F)(F)F)CC3)CC2)nc1Cl` [Example 9-3, 2-chloro-6-[4-({1-[(2R)-2-(3,5-dichlorophenyl)-3,3,3-trifluoro-2-hydroxypropanoyl]-piperidin-4-yl}-sulfanyl)piperidin-1-yl]-N,N-dimethyl-pyridine-3-carboxamide]: the figures for the Emax in experiment [1] (setting [3]) and in experiment [2] (setting [5]) were 10% and 63%, respectively. In experiment [1] (setting [4]), the “LXR alpha IP (nM)” value is recorded as “NO IP”. Further, the EC50 in experiment [2] (setting [6]) is 14 nM.

In the case of `CN(C)C(=O)c1ccc(N2CCC(CC3CCN(C(=O)C(O)(c4cc(Cl)cc(Cl)c4)C(F)(F)F)CC3)CC2)nc1Cl` (stereo not shown) [Example 7-83, 2-chloro-6-[4-({1-[2-(3,5-dichlorophenyl)-3,3,3-trifluoro-2-hydroxypropanoyl]piperidin-4-yl}methyl)piperidin-1-yl]-N,N-dimethylpyridine-3-carboxamide], the Emax was 13% in experiment [1] (setting [3]) and 53% in experiment [2] (setting [5]). Also, the “LXR alpha IP (nM)” value in experiment [1] (setting [4]) is “NO IP”. In addition, the EC50 in experiment [2] (setting [6]) came out at 8 nM.

`CN(C)C(=O)c1ccc(N2CCC(CC3CCN(C(=O)C(O)(c4cccc(C#N)c4)C(F)(F)F)CC3)CC2)nc1Cl` (stereo not shown) [Example 7-78, 2-chloro-6-[4-({1-[2-(3-cyanophenyl)-3,3,3-trifluoro-2-hydroxypropanoyl]piperidin-4-yl}methyl)piperidin-1-yl]-N,N-dimethylpyridine-3-carboxamide]: the Emax amounted to 31% in experiment [1] (setting [3]) and 95% in experiment [2] (setting [5]). Further, the EC50 in experiment [1] (setting [7]) came out at 298 nM; in experiment [2] (setting [6]), 6 nM.

With `CN(C)C(=O)c1ccc(N2CCC(CC3CCN(C(=O)C4(c5ccccc5F)CCCC4)CC3)CC2)nc1Cl` [Example 7-65, 2-chloro-6-{4-[(1-{[1-(2-fluorophenyl)cyclopentyl]carbonyl}piperidin-4-yl)methyl]piperidin-1-yl}-N,N-dimethylpyridine-3-carboxamide], the Emax came to 29% in experiment [1] (setting [3]) and 95% in experiment [2] (setting [5]). In addition, the EC50 in experiment [1] (setting [7]) was 658 nM; in experiment [2] (setting [6]), 48 nM.

On to `Cc1cc(N2CCC(CC3CCN(C(=O)[C@](O)(c4cccc(OC(C)C)c4)C(F)(F)F)CC3)CC2)ccc1C(=O)N(C)C` [Example 2-147, N,N,2-trimethyl-4-{4-[(1-{(2R)-3,3,3-trifluoro-2-hydroxy-2-[3-(1-methylethoxy)phenyl]propanoyl}piperidin-4-yl)methyl]piperidin-1-yl}benzamide], for which the Emax in experiment [1] (setting [3]) was found to be 7%; in experiment [2] (setting [5]), 52%. The “LXR alpha IP (nM)” value in experiment [1] (setting [4]) is given as “NO IP”. In addition, in experiment [2] (setting [6]), the EC50 was determined as 19 nM.

In the case of `CN(C)C(=O)c1ccc(N2CCC(CC3CCN(C(=O)[C@](N)(c4ccccc4)C(F)(F)F)CC3)CC2)cc1Cl` (stereo in doubt) [Example 2-101, 4-[4-({1-[2-amino-3,3,3-trifluoro-2-phenyl-propanoyl]piperidin-4-yl}methyl)piperidin-1-yl]-2-chloro-N,N-dimethyl-benzamide], the Emax was 21% in experiment [1] (setting [3]) and 106% in experiment [2] (setting [5]). In addition, the EC50 in experiment [1] (setting [7]) came to 1770 nM; in experiment [2] (setting [6]) it was 114 nM.

On to `O=C(c1ccc(N2CCC(CC3CCN(C(=O)[C@](O)(c4ccccc4)C(F)(F)F)CC3)CC2)cc1Cl)N1CCC(n2ccnc2)C1` (stereo partly drawn) [Example 4-19, (2R)-3-(4-{[1-(3-chloro-4-{[3-(1H-imidazol-1-yl)pyrrolidin-1-yl]carbonyl}phenyl)piperidin-4-yl]methyl}piperidin-1-yl)-1,1,1-trifluoro-3-oxo-2-phenylpropan-2-ol], for which the Emax in experiment [1] (setting [3]) is 25%; in experiment [2] (setting [5]) it was 43%. Also, the EC50 in experiment [1] (setting [7]) was 765 nM; in experiment [2] (setting [6]), 141 nM.

As for `CN(C)C(=O)c1ccc(N2CCC(CC3CCN(S(=O)(=O)c4cc(F)ccc4F)CC3)CC2)cc1Cl` [Example 13-5, 2-chloro-4-[4-({1-[(2,5-difluorophenyl)-sulfonyl]piperidin-4-yl}methyl)piperidin-1-yl]-N,N-dimethylbenzamide], the EC50 in experiment [1] (co-activator recruitment to GST-LXRalpha LBD, TR-FRET, read-out: LXR alpha IP (Inflection Point, potency)) worked out at 590 nM; in experiment [2] (co-activator recruitment to GST-LXRbeta LBD, TR-FRET, read-out: LXR beta IP (Inflection Point, potency)), 52 nM. In addition, the Emax in experiment [1] (efficacy in relation to reference dual agonist T0901317, read-out: LXR alpha Activity @ max dose) was found to be 33%; in experiment [2] (efficacy in relation to reference dual agonist T0901317, read-out: LXR beta Activity @ max dose) it was 63%.
